#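 The compound was tested at five concentrations on cells cultured in 96-well plates, with a 48-hour exposure period. GI50 marks 50% less growth.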 Activity calls are given as the source filed them. No stated cut-off is given here; in the data, active = GI50 up to about 1.1 µM and inactive = higher.
# Key:
# Experiment in all cases: DTP human tumour cell line panel, 48 h
# M14 = tested on: M14
# MDA-MB-231 = tested on: MDA-MB-231
# OVCAR-5 = tested on: OVCAR-5
# NCI-H460 = tested on: NCI-H460
# U-251 = tested on: U-251
# CCRF-CEM = tested on: CCRF-CEM
# K562 = tested on: K562
# HCC 2998 = tested on: HCC 2998
# MCF7 = tested on: MCF7
# SF-295 = tested on: SF-295
# UACC-62 = tested on: UACC-62
# OVCAR-3 = tested on: OVCAR-3
# SK-MEL-28 = tested on: SK-MEL-28
# HT-29 = tested on: HT-29
# NCI-H23 = tested on: NCI-H23
# NCI-H522 = tested on: NCI-H522
# HCT-116 = tested on: HCT-116
# HOP-92 = tested on: HOP-92
# OVCAR-4 = tested on: OVCAR-4
# CAKI-1 = tested on: CAKI-1
# SK-MEL-2 = tested on: SK-MEL-2
# COLO 205 = tested on: COLO 205
# SNB-19 = tested on: SNB-19
# EKVX = tested on: EKVX
# SK-MEL-5 = tested on: SK-MEL-5
# 786-0 = tested on: 786-0
# MDA-N = tested on: MDA-N
# IGROV-1 = tested on: IGROV-1
# OVCAR-8 = tested on: OVCAR-8
# HCT-15 = tested on: HCT-15
# Hs-578T = tested on: Hs-578T
# PC-3 = tested on: PC-3
# UACC-257 = tested on: UACC-257
# SF-268 = tested on: SF-268
# DU-145 = tested on: DU-145
# SK-OV-3 = tested on: SK-OV-3
# T47D = tested on: T47D
# BT-549 = tested on: BT-549
# MDA-MB-435 = tested on: MDA-MB-435
# NCI-H226 = tested on: NCI-H226
# A549 = tested on: A549
# UO-31 = tested on: UO-31
# SR = tested on: SR
# SW-620 = tested on: SW-620
# A498 = tested on: A498
# NCI/ADR-RES = tested on: NCI/ADR-RES
# RPMI-8226 = tested on: RPMI-8226
# KM12 = tested on: KM12
# TK-10 = tested on: TK-10
# ACHN = tested on: ACHN
# HOP-62 = tested on: HOP-62
# HL-60 = tested on: HL-60
# LOX IMVI = tested on: LOX IMVI
# Malme-3M = tested on: Malme-3M
# SNB-75 = tested on: SNB-75
# MOLT-4 = tested on: MOLT-4
# SN12C = tested on: SN12C
# SF-539 = tested on: SF-539
structure (smiles),measurement,setting,value
COc1cc(C(O)c2ccc3c(c2)OCO3)cc(OC)c1OC (stereo not drawn),GI50,M14,> 100 µM (inactive)
same,GI50,MDA-MB-231,> 100 µM (inactive)
same,GI50,OVCAR-5,> 100 µM (inactive)
same,GI50,NCI-H460,> 100 µM (inactive)
same,GI50,U-251,> 100 µM (inactive)
same,GI50,CCRF-CEM,> 100 µM (inactive)
same,GI50,K562,> 100 µM (inactive)
same,GI50,HCC 2998,> 100 µM (inactive)
same,GI50,MCF7,> 100 µM (inactive)
same,GI50,SF-295,> 100 µM (inactive)
same,GI50,UACC-62,> 100 µM (inactive)
same,GI50,OVCAR-3,> 100 µM (inactive)
same,GI50,SK-MEL-28,> 100 µM (inactive)
same,GI50,HT-29,> 100 µM (inactive)
same,GI50,NCI-H23,> 100 µM (inactive)
same,GI50,NCI-H522,> 100 µM (inactive)
same,GI50,HCT-116,> 100 µM (inactive)
same,GI50,HOP-92,> 100 µM (inactive)
same,GI50,OVCAR-4,> 100 µM (inactive)
same,GI50,CAKI-1,> 100 µM (inactive)
same,GI50,SK-MEL-2,> 100 µM (inactive)
same,GI50,COLO 205,> 100 µM (inactive)
same,GI50,SNB-19,> 100 µM (inactive)
same,GI50,EKVX,> 100 µM (inactive)
same,GI50,SK-MEL-5,80.2 µM (inactive)
same,GI50,786-0,> 100 µM (inactive)
same,GI50,MDA-N,> 100 µM (inactive)
same,GI50,IGROV-1,> 100 µM (inactive)
same,GI50,OVCAR-8,> 100 µM (inactive)
same,GI50,HCT-15,> 100 µM
same,GI50,Hs-578T,> 100 µM (inactive)
same,GI50,PC-3,> 100 µM (inactive)
same,GI50,UACC-257,> 100 µM (inactive)
same,GI50,SF-268,> 100 µM (inactive)
same,GI50,DU-145,> 100 µM (inactive)
same,GI50,SK-OV-3,> 100 µM (inactive)
same,GI50,T47D,37.1 µM (inactive)
same,GI50,BT-549,> 100 µM (inactive)
same,GI50,MDA-MB-435,70 µM (inactive)
same,GI50,NCI-H226,> 100 µM (inactive)
same,GI50,A549,> 100 µM (inactive)
same,GI50,UO-31,61.2 µM (inactive)
same,GI50,SR,> 100 µM (inactive)
same,GI50,SW-620,> 100 µM (inactive)
same,GI50,A498,> 100 µM (inactive)
same,GI50,NCI/ADR-RES,> 100 µM (inactive)
same,GI50,RPMI-8226,> 100 µM (inactive)
same,GI50,KM12,> 100 µM (inactive)
same,GI50,TK-10,> 100 µM (inactive)
same,GI50,ACHN,> 100 µM (inactive)
same,GI50,HOP-62,> 100 µM (inactive)
same,GI50,HL-60,> 100 µM (inactive)
same,GI50,LOX IMVI,> 100 µM (inactive)
same,GI50,Malme-3M,> 100 µM (inactive)
same,GI50,SNB-75,73.5 µM (inactive)
same,GI50,MOLT-4,> 100 µM (inactive)
same,GI50,SN12C,> 100 µM (inactive)
same,GI50,SF-539,> 100 µM (inactive)

# — ChEMBL document CHEMBL1201862, “PubChem BioAssay data set” (2004)
